According to patent publication US20250367185A1, “TRANSLESION SYNTHESIS POLYMERASE INHIBITORS AND USES THEREOF” (THE UNIVERSITY OF VERMONT AND STATE AGRICULTURAL COLLEGE, priority 2022, published 2025):

System: HPRT (hypoxanthine phosphoribosyltransferase) gene in A549-ACE2+ cells infected with SARS-COV-2
Experiment: HPRT mutagenesis in SARS-COV-2 infected cells
Type: cell-based

CC(C)CC(=O)c1c(Nc2ccc(C(=O)O)cc2Cl)[nH]c2c(Cl)ccc([N+](=O)[O-])c2c1=O [Compound 1, 3-chloro-4-((8-chloro-3-(3-methylbutanoyl)-5-nitro-4-oxo-1,4-dihydroquinolin-2-yl)amino)benzoic acid]
SARS-COV-2-dependent HPRT mutagenesis: suppress
